Article PMC9841589, “Identification of 2-Aminoacyl-1,3,4-thiadiazoles as Prostaglandin E2 and Leukotriene Biosynthesis Inhibitors” (ACS Medicinal Chemistry Letters, 2022)

Key:
[1] = target: T1, Human recombinant 5-LO (Homo sapiens, UniProt P09917); assay: Cell-free 5-LO activity assay; assay type: biochemical; conditions: percentage of uninhibited control (100%), n = 3; n.i.: no inhibitory activity observed
T1 construct: made in house; host or cells: E. coli BL21 transformed with pT3-5-LO plasmid
T1 sequence (P09917 1-674): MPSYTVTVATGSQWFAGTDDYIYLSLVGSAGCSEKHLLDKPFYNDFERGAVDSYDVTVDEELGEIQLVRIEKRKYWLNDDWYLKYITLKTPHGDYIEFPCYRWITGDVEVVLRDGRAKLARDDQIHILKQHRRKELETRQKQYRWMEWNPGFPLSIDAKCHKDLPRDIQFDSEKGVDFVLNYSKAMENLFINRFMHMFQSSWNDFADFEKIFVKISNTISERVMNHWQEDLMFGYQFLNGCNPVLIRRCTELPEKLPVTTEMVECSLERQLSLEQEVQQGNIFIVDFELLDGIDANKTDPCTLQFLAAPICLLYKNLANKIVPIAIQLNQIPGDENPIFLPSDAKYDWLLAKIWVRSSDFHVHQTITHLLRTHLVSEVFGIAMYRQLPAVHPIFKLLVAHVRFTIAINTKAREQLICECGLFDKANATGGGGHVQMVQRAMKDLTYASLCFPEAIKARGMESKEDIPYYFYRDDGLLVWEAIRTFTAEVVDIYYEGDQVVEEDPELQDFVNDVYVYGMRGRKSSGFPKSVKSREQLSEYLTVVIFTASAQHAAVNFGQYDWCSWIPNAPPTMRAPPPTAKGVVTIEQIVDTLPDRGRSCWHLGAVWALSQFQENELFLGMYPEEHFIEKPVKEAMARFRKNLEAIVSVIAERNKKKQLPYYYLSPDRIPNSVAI
Description: mM glutathione, and 250 mM sucrose) and the protein concentration was defined. Potassium phosphate buffer (0.1 M, pH = 7.4) plus glutathione (2.5 mM) was added to dilute microsomes, which were then seeded in a 96-well plate. Test compounds 1-9 (10 µM) or DMSO (1%) were added and preincubated for 15 min on ice. MK886 (10 µM) and MD-52 (1 µM) were used as reference drugs.
The reactions started by adding 20 µM of PGH2, and 1 min later, 100 µl of a solution containing FeCl3 (40 mM), citric acid (80 mM), and 11β-PGE 2 (10 µM) were added for stopping the conversion of PGH2. After the extraction of PGE2 and 11β-PGE 2 (internal stardard) by solid-phase extraction, the quantity of product formation (PGE2) was determined by RP-HPLC.114
Cell-free 5-LO activity assay
Human recombinant 5-LO was expressed in E.coli BL21 transformed with pT3-5-LO plasmid at 30 °C overnight 15.2 A lysis buffer (50 mM triethanolamine, pH = 8.0, 5 mM EDTA, 1 mM phenylmethanesulfonyl fluoride, 60 µg/mL soybean trypsin inhibitor, 2 mM dithiothreitol and lysozyme) was added. […] Finally, a solid-phase extraction then was performed using C18 RP-columns (100 mg, UCT, Bristol, PA, USA) and RP-HPLC was used to quantify 5-LOX products.3 16 The 5-LO inhibitor zileuton (3 µM) was used as positive control. […]

[2] = system: zymosan-induced peritonitis; assay: Zymosan-induced peritonitis in mice; assay type: in vivo, mouse
Description: Figure 5 Effect of compound 3 in zymosan-induced peritonitis in mice. Mice were randomly divided into different experimental groups: control group (Ctrl), model group (zymosan + vehicle compound 3), zymosan + compound 3 (i.p. injection 30 min after i.p. injection of zymosan) group, and zymosan + dexamethasone (i.p. injection 30 min after i.p. injection of zymosan) group. At (A) 4 and (B) 24 h after injection, peritoneal exudate from each mouse was recovered, and the total cell number was evaluated. Results are expressed as mean ± SD. For statistical analysis see SI.
Figure 6 Analysis of cytokine levels collected in the peritoneal exudate of mice from different experimental groups: (A, B) IL-1β, (C, D) IL-6, (E, F) PGE2, and (G, H) IL-10. Results (normalized to exudate levels) are expressed as mean ± SD. For statistical analysis see SI.
Induction of peritonitis in mice and Enzyme-Linked Immunosorbent Assay (ELISA)
To examine the anti-inflammatory action of compound 3, we next evaluated the biological activity of
compound 3 in a mouse model of zymosan-induced peritonitis, as as previously described. 13,14 26, 27
To this aim, mice were randomly divided into different experimental groups: control group (Ctrl),
model group (zymosan + vehicle compound 3), zymosan + compound 3 (0.1, 1, and 10 mg/kg), and
zymosan + dexamethasone (3 mg/kg) group. Animals received the selected compound or
dexamethasone intraperitoneally (i.p.) 30 min after i.p. injection of zymosan (500 mg/kg)26, 27. Ctrl
and model groups received an equal volume of vehicle (PBS or DMSO/saline 1:3, respectively).
Peritoneal exudates were collected at selected time points (4 and 24 h) by washing the cavity with 2
mL of PBS. Then cell number of lavage fluids was determined by TC10 automated cell counter (Bio-
Rad, Milan, Italy) using disposable slides. The remaining lavage fluids were centrifuged at 3000 rpm
for 20 min at 4 °C, and supernatants were frozen at −80 °C for further ELISA analysis according to
the manufacturer instructions (eBioscience Co., San Diego, CA, USA)10 23 of IL-1β, IL-6, PGE 2 and
IL-10 following the procedure previously described15-17 28-30. Dexamethasone and zymosan A were
purchased from Sigma-Aldrich (Milan, Italy). DMSO was purchased from Merck (Italy). Unless
otherwise stated, all the other reagents were purchased from Carlo Erba (Milan, Italy).
The data and statistical analysis in this study comply with the international recommendations on
experimental design and analysis in preclinical pharmacology18-2031-33. The results obtained were
expressed as the mean ± S.D. or as mean ± S.E.M., as reported in detail in the figure legends. IC 50
values were calculated by nonlinear regression using GraphPad Prism Version 8.0 software (San
Diego, CA) one site binding competition. Statistical evaluation of the data was performed by one-

[3] = 10 mg/kg i.p., 4 h (P ≤ 0.05) and 24 h (P ≤ 0.01)

Row | 5-LO residual activity (%) [1] | SMILES | leucocyte recruitment (total cell number in peritoneal exudate) ([2]; 1 mg/kg i.p., 4 and 24 h, P ≤ 0.05) | leucocyte recruitment (total cell number in peritoneal exudate) ([2]; 10 mg/kg i.p. 30 min after zymosan, 4 h, P ≤ 0.05) | leucocyte recruitment (total cell number in peritoneal exudate) ([2]; 10 mg/kg i.p. 30 min after zymosan, 24 h, P ≤ 0.01) | IL-10 level in peritoneal exudate ([2]; 10 mg/kg i.p., 4 and 24 h) | PGE2 level in peritoneal exudate ([2]; 10 mg/kg i.p., 4 and 24 h (P ≤ 0.01)) | IL-1β level in peritoneal exudate [2, 3] | IL-6 level in peritoneal exudate [2, 3]
1 | n.i. (75.9) % | Nc1ccccc1-c1ccc(-c2nnc(NC(=O)c3c(Cl)ccnc3Cl)s2)cc1 [compound 9] |  |  |  |  |  |  | 
2 | n.i. (125) % | O=C(Nc1nnc(-c2ccc(-c3cccc(O)c3)cc2)s1)c1ccccc1Br [compound 3] | remarkable effect | reduced | reduced | modulated only at 24 h | significantly reduced | significantly reduced | significantly reduced
